Assay results reported in US20190169134A1, “NOVEL CLASS OF QUINOLONE HETEROCYCLIC AROMATIC MOLECULES FOR CANCER TREATMENT” (RenoTarget Therapeutics, Inc., priority 2016, published 2019).

How the values were obtained:
Test in all cases: KinaseSeeker competition binding assay
ABL1 = biological target: T1, ABL1 (Homo sapiens, UniProt P00519)
T1 construct: made in house; host or cells: cell-free system (rabbit reticulocyte lysate)
Procedure: (§1) Compound Reno647 was profiled against the following panel of kinases at 2 μM using the KinaseSeeker™ assay: ABL1, AKT1, AKT2, AKT3, ALK, AURKA, AXL, BRAF, BTK, CDK2, CDK5, CDK7, CDK8, CSF1R, DDR1, EGFR del L747-P753 InsS, EGFR (L861Q), EGFR (G719S), EGFR, EGFR (L858R), EPHA2, EPHB2, FGFR3, FLT1/VEGFR1, FLT2/FGFR1, FLT3, FLT4/VEGFR3, GSK-3a, HER2, IGF1R, INSR, KIT, LIMK1, MET, MLK2/MAP3K10, RPS6KA5/MSK1, MUSK, p38a/MAPK12, PDGFRA, PDGFRB, PDK1, RET, RIPK2, RPS6KA1/RSK1, SRC, TEC, TESK1, TRKB, VEGFR2, and YES 1.
(§2) KinaseSeeker is a homogeneous competition binding assay where the displacement of an active site dependent probe by an inhibitor is measured by a change in luminescence signal (see FIG. 7). Luminescence readout translates into a highly sensitive and robust assay with low background and minimal interference from test compounds.
(§3) (Jester, Cox et al. 2010; Jester, Gaj et al. 2012): 10 mM stock of compound Reno647 was diluted in DMSO to a concentration of 50 μM. Prior to initiating a profiling campaign, the compound was evaluated for false positive against split-luciferase. The compound was then screened in duplicate against each of the kinases. For kinase assays, each Cfluc-Kinase was translated along with Fos-Nfluc using a cell-free system (rabbit reticulocyte lysate) at 30° C. for 90 min. A 24 μL aliquot of this lysate containing either 1 μL of DMSO (for no-inhibitor control) or compound solution in DMSO (2 LM final concentration) was incubated for 30 minutes at room temperature followed by 1 hour in the presence of a kinase specific probe. A 80 μL of luciferin assay reagent was added to each solution and luminescence was immediately measured on a luminometer.
(§4) The % Inhibition and % Activity Remaining were calculated using the following equations:
(§5) % inhibition=(ALUcontrol−ALUsample)×100
(§6) % activity=100−% inhibition.

AKT2 = biological target: T2, AKT2 (Homo sapiens, UniProt P31751)
T2 construct: made in house; host or cells: cell-free system (rabbit reticulocyte lysate)
Procedure: as §1, §2, §3, §4, §5, §6

AKT3 = biological target: T3, AKT3 (Homo sapiens, UniProt Q9Y243)
T3 construct: made in house; host or cells: cell-free system (rabbit reticulocyte lysate)
Procedure: as §1, §2, §3, §4, §5, §6

ALK = biological target: T4, ALK (Homo sapiens, UniProt Q9UM73)
T4 construct: made in house; host or cells: cell-free system (rabbit reticulocyte lysate)
Procedure: as §1, §2, §3, §4, §5, §6

AURKA = biological target: T5, AURKA (Homo sapiens, UniProt O14965)
T5 construct: made in house; host or cells: cell-free system (rabbit reticulocyte lysate)
Procedure: as §1, §2, §3, §4, §5, §6

BTK = biological target: T6, BTK (Homo sapiens, UniProt Q06187)
T6 construct: made in house; host or cells: cell-free system (rabbit reticulocyte lysate)
Procedure: as §1, §2, §3, §4, §5, §6

DDR1 = biological target: T7, DDR1 (Homo sapiens, UniProt Q08345)
T7 construct: made in house; host or cells: cell-free system (rabbit reticulocyte lysate)
Procedure: as §1, §2, §3, §4, §5, §6

FLT2 = biological target: T8, FLT2 (Homo sapiens, UniProt P11362)
T8 construct: made in house; host or cells: cell-free system (rabbit reticulocyte lysate)
Procedure: as §1, §2, §3, §4, §5, §6

GSK3A = biological target: T9, GSK3A (Homo sapiens, UniProt P49840)
T9 construct: made in house; host or cells: cell-free, rabbit reticulocyte lysate
Procedure: as §1, §2, §3, §4, §5, §6

MUSK = biological target: T10, MUSK (Homo sapiens, UniProt O15146)
T10 construct: made in house; host or cells: cell-free, rabbit reticulocyte lysate
Procedure: as §1, §2, §3, §4, §5, §6

RET = biological target: T11, RET (Homo sapiens, UniProt P07949)
T11 construct: made in house; host or cells: cell-free, rabbit reticulocyte lysate
Procedure: as §1, §2, §3, §4, §5, §6

RSK1 = biological target: T12, RSK1 (Homo sapiens, UniProt Q15418)
T12 construct: made in house; host or cells: cell-free, rabbit reticulocyte lysate
Procedure: as §1, §2, §3, §4, §5, §6

TEC = biological target: T13, TEC (Homo sapiens, UniProt P42680)
T13 construct: made in house; host or cells: cell-free, rabbit reticulocyte lysate
Procedure: as §1, §2, §3, §4, §5, §6

TESK1 = biological target: T14, TESK1 (Homo sapiens, UniProt Q15569)
T14 construct: made in house; host or cells: cell-free, rabbit reticulocyte lysate
Procedure: as §1, §2, §3, §4, §5, §6

T7 sequence (Q08345 19-913): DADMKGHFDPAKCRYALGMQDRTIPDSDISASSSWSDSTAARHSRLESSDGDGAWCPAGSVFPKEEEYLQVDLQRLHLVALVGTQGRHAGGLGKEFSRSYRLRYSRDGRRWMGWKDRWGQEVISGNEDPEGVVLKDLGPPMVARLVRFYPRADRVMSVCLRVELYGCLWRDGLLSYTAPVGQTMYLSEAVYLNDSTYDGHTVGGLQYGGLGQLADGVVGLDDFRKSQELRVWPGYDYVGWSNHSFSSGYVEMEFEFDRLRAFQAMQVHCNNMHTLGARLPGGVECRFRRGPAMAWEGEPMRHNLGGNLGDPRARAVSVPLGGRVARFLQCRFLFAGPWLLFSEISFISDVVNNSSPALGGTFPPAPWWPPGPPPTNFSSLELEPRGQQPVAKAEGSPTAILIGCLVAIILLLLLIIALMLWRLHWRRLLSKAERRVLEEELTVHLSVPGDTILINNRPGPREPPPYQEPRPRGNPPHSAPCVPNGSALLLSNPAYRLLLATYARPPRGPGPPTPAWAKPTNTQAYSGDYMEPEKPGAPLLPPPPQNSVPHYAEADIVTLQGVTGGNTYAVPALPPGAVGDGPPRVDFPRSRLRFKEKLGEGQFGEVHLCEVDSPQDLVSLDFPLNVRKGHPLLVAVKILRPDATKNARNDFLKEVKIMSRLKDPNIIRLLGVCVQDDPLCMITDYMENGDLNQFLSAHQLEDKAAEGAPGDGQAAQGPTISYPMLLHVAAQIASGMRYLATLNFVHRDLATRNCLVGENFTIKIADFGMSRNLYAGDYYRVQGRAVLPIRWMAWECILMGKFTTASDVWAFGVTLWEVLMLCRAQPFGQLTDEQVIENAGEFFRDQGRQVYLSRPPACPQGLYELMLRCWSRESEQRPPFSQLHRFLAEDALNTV
T4 sequence (Q9UM73 19-1620): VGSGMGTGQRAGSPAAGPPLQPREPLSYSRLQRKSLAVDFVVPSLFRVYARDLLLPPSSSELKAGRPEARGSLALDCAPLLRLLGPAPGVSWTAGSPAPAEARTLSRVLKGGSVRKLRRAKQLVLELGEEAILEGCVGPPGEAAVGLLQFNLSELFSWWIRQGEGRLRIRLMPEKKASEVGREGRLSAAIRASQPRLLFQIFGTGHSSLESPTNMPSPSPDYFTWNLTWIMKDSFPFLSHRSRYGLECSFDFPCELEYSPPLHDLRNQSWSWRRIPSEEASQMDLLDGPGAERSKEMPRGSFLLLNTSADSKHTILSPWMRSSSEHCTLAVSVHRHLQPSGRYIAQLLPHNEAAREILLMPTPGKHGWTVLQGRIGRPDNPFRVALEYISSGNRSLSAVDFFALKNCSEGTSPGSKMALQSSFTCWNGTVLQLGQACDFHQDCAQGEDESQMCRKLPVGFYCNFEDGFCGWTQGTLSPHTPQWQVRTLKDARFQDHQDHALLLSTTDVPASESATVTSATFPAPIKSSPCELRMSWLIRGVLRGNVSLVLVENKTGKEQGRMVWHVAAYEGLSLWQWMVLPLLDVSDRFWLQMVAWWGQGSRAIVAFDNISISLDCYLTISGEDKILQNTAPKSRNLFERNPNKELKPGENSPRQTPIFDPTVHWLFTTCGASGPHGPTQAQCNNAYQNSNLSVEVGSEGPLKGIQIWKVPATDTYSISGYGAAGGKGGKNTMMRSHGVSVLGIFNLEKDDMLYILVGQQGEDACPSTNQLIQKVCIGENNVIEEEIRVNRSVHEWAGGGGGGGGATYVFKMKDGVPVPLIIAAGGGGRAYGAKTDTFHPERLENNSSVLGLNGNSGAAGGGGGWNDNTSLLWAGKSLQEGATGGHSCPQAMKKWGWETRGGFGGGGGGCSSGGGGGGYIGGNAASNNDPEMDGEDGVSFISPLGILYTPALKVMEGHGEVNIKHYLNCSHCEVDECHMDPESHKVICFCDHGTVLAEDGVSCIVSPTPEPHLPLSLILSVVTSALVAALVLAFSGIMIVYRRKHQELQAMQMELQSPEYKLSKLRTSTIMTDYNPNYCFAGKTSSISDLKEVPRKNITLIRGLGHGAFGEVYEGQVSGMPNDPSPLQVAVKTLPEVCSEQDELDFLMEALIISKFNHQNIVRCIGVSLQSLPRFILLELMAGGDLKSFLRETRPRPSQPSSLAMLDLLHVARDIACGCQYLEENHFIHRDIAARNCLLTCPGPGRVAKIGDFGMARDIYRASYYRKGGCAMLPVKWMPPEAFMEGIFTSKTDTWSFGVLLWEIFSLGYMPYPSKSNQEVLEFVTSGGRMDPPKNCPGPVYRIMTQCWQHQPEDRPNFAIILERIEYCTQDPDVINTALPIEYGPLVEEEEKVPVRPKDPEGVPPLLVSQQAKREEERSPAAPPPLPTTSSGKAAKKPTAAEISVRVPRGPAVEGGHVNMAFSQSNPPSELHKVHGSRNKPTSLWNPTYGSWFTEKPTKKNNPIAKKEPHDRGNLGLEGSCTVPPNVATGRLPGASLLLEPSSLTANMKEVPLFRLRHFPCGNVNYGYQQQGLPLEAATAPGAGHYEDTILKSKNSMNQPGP
T10 sequence (O15146 24-869): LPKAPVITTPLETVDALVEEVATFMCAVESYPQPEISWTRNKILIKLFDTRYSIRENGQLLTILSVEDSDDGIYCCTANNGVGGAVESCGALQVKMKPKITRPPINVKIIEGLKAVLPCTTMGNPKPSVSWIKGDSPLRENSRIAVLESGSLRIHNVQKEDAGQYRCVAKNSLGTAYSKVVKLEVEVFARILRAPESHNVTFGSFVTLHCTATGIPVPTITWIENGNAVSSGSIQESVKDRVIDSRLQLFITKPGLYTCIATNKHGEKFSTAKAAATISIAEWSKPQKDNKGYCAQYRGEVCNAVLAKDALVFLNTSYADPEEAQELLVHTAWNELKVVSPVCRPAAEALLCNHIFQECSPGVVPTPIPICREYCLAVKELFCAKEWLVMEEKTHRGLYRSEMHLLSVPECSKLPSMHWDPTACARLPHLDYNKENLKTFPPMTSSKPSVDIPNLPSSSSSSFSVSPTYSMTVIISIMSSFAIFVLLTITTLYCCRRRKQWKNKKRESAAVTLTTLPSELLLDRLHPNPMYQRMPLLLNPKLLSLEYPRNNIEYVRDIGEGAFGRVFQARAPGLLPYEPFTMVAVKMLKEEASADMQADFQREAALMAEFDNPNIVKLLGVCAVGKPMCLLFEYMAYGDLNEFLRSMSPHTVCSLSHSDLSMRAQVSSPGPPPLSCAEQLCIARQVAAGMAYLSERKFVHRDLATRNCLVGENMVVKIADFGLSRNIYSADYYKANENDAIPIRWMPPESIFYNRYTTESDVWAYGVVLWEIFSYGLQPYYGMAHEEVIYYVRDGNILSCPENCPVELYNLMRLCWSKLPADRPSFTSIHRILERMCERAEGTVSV
T5 sequence (O14965 whole entry): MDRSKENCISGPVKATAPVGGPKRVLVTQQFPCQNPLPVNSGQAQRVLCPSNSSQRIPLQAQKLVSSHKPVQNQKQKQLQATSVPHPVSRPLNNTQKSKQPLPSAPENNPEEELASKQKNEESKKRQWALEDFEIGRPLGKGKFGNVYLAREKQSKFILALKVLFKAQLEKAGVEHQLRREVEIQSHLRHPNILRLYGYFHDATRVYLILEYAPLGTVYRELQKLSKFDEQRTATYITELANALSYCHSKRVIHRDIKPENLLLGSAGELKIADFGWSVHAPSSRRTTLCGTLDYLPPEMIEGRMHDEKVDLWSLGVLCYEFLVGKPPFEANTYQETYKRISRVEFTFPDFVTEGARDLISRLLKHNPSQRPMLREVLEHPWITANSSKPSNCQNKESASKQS
T13 sequence (P42680 whole entry): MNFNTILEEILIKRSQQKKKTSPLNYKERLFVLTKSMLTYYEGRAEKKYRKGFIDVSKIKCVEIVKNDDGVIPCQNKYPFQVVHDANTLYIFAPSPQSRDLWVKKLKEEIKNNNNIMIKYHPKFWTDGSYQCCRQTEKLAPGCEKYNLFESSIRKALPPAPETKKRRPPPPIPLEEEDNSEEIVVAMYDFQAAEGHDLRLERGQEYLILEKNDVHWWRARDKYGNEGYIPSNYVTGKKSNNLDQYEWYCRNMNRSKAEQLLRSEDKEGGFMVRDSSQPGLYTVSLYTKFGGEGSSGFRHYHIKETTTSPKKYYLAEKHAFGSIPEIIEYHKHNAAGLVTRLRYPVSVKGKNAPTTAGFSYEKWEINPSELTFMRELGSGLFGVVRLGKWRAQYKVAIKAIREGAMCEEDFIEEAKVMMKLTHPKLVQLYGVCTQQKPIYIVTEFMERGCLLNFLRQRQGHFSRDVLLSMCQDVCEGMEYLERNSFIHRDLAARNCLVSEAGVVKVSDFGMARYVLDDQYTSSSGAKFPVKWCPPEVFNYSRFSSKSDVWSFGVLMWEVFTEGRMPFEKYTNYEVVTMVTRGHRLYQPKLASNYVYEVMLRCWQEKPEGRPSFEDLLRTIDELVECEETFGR
T9 sequence (P49840 whole entry): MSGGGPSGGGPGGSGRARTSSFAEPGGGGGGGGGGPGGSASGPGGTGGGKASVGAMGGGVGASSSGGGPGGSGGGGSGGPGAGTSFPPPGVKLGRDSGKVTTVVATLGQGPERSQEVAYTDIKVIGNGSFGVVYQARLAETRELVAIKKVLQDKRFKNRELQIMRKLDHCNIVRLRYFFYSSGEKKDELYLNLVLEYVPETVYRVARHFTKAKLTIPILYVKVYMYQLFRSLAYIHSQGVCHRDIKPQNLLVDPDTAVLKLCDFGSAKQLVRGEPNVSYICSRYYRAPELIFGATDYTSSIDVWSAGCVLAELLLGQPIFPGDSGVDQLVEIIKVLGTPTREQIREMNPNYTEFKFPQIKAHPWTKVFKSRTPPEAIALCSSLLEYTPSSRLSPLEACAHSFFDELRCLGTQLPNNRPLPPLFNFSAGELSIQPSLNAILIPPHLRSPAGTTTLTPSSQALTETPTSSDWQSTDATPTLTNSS

## C#Cc1cccc(Nc2ncnc3cc(OCCOC)c(NC(=O)c4ccc(F)c([N+](=O)[O-])c4)cc23)c1 [Reno647, 4-Fluoro-N-[4-(3-ethynyl-phenylamino)-7-(2-methoxy-ethoxy)-quinazolin-6-yl]-3-nitro-benzamide]
ABL1
  remaining binding at 2 µM: 100%
AKT2
  remaining binding at 2 µM: 100%
AKT3
  remaining binding at 2 µM: 100%
ALK
  remaining binding at 2 µM: 92.1%
AURKA
  remaining binding at 2 µM: 100%
BTK
  remaining binding at 2 µM: 93.1%
DDR1
  remaining binding at 2 µM: ~42%
FLT2
  remaining binding at 2 µM: 51.7%
GSK3A
  remaining binding at 2 µM: 100%
MUSK
  remaining binding at 2 µM: 91.8%
RET
  remaining binding at 2 µM: 100%
RSK1
  remaining binding at 2 µM: 100%
TEC
  remaining binding at 2 µM: 97.4%
TESK1
  remaining binding at 2 µM: 100%
